Data: PMC7756412 (2020)

Legend:
[1] = system: Myc-dup3 (DNA, G4) TGAGGGTGGGTAGGGTGGGCTAGTCATTTTGACTAG; assay: ITC, two-site fit; settings: 120 mM K+; 100 mM KCl, 20 mM potassium phosphate pH 7.0, 5% DMSO, 40 °C; high-affinity site
[2] = system: Myc-dup5 (DNA, G4) GATCAGTTTTACTGATCGGGTGGGTAGGGTGGGTA; assay: CD melting, 265 nm; settings: 120 mM Na+; 100 mM NaCl, 20 mM sodium phosphate pH 7; 5 µM DNA, 1 equiv PIQ; quadruplex domain; 53.2 to 69.7 °C
[3] = system: Myc-dup5 (DNA, G4) GATCAGTTTTACTGATCGGGTGGGTAGGGTGGGTA; assay: NMR titration, chemical shift perturbation; settings: K+ (10 mM potassium phosphate); pH 7.0, 20 °C; 5' quadruplex-duplex junction; ITC isotherm not reliably fitted (Ka n.d.)
[4] = system: Myc3l-dup5 (DNA, G4) GATCAGTTTTACTGATCGGGTGGTGGGTGGGGAAGG; assay: ITC, two-site fit; settings: 120 mM K+; 100 mM KCl, 20 mM potassium phosphate pH 7.0, 5% DMSO, 40 °C; high-affinity site
[5] = system: Myc3l-dup5 (DNA, G4) GATCAGTTTTACTGATCGGGTGGTGGGTGGGGAAGG; assay: CD melting, 265 nm; settings: 120 mM Na+; 100 mM NaCl, 20 mM sodium phosphate pH 7; 1 equiv PIQ; quadruplex domain; derived from two Tm (66.3, 73.8)
[6] = system: Myc-dup5 (DNA, G4) GATCAGTTTTACTGATCGGGTGGGTAGGGTGGGTA; assay: UV melting, 260 nm; settings: 120 mM Na+; 100 mM NaCl, 20 mM sodium phosphate pH 7; 1 equiv PIQ; duplex domain; derived from two Tm (67.8, 73.5)
[7] = system: Myc-dup3 (DNA, G4) TGAGGGTGGGTAGGGTGGGCTAGTCATTTTGACTAG; assay: CD melting, 265 nm; settings: 120 mM Na+; 100 mM NaCl, 20 mM sodium phosphate pH 7; 5 µM DNA, 1 equiv PIQ; quadruplex domain; 44.7 to 68.2 °C
[8] = system: Myc3l-dup5 (DNA, G4) GATCAGTTTTACTGATCGGGTGGTGGGTGGGGAAGG; assay: UV melting, 260 nm; settings: 120 mM Na+; 100 mM NaCl, 20 mM sodium phosphate pH 7; 1 equiv PIQ; duplex domain; derived from two Tm (69.5, 76.1)
[9] = system: Myc-dup3 (DNA, G4) TGAGGGTGGGTAGGGTGGGCTAGTCATTTTGACTAG; assay: UV melting, 260 nm; settings: 120 mM Na+; 100 mM NaCl, 20 mM sodium phosphate pH 7; 1 equiv PIQ; duplex domain; derived from two Tm (63.6, 70.8)

Ka [1]: (1.6±0.4)×10^7 M^-1 | ΔTm [2]: 17 °C | binding [3]: yes | Ka [4]: (1.6±0.2)×10^7 M^-1 | ΔTm [5]: 7.5 °C | ΔTm [6]: 5.7 °C | ΔTm [7]: 23 °C | ΔTm [8]: 6.6 °C | ΔTm [9]: 7.2 °C
SMILES: CCN(CC)CCCNC(=O)c1ccc(-c2c3cccc(C)c3[n+](C)c3c2[nH]c2c(C)cccc23)cc1
